ChEMBL document CHEMBL6182888, “Design, synthesis, and biological activity study of 6,7-dimethoxy-1,2,3,4-tetrahydroisoquinoline derivatives against multidrug resistance in Eca109/VCR cells” (Eur J Med Chem, 2025)
Activity calls are given as the source filed them. The rule behind the calls is not given here.

Experiments:
[1] = Reversal fold, ratio of vincristine IC50 to vincristine IC50 in presence of test compound for reversal of drug resistance in human Eca-109/VCR cells at 5 uM incubated for 48 hrs by CCK-8 assay; type: functional
Eca-109/VCR [2] = experiment: Cytotoxicity against human Eca-109/VCR cells assessed as reduction in cell viability at 5.0 uM incubated for 48 hrs by CCK-8 assay relative to control; type: functional
Eca-109/VCR [3] = experiment: Induction of apoptosis in human Eca-109/VCR cells assessed as late apoptotic cells at 5 uM incubated for 60 hrs in presence of vincristine by Annexin V-FITC/PI staining based flow cytometric analysis (reference value: 0.56%); type: functional
Eca-109/VCR [4] = experiment: Induction of apoptosis in human Eca-109/VCR cells assessed as viable cells at 2.5 uM incubated for 60 hrs by Annexin V-FITC/PI staining based flow cytometric analysis (reference value: 97.4%); type: functional; settings: read-out: Activity
Eca-109/VCR [5] = experiment: Induction of apoptosis in human Eca-109/VCR cells assessed as viable cells at 5 uM incubated for 60 hrs in presence of vincristine by Annexin V-FITC/PI staining based flow cytometric analysis (reference value: 97.3%); type: functional; settings: read-out: Activity
Eca-109/VCR [6] = experiment: Induction of apoptosis in human Eca-109/VCR cells assessed as necrotic cells at 5 uM incubated for 60 hrs in presence of vincristine by Annexin V-FITC/PI staining based flow cytometric analysis (reference value: 0.10%); type: functional
Eca-109/VCR [7] = experiment: Induction of apoptosis in human Eca-109/VCR cells assessed as late apoptotic cells at 2.5 uM incubated for 60 hrs by Annexin V-FITC/PI staining based flow cytometric analysis (reference value: 0.70%); type: functional
Eca-109/VCR [8] = experiment: Induction of apoptosis in human Eca-109/VCR cells assessed as early apoptotic cells at 2.5 uM incubated for 60 hrs by Annexin V-FITC/PI staining based flow cytometric analysis (reference value: 1.66%); type: functional
Eca-109/VCR [9] = experiment: Induction of apoptosis in human Eca-109/VCR cells assessed as late apoptotic cells at 2.5 uM incubated for 60 hrs in presence of vincristine by Annexin V-FITC/PI staining based flow cytometric analysis (reference value: 0.56%); type: functional
Eca-109/VCR [10] = experiment: Induction of apoptosis in human Eca-109/VCR cells assessed as necrotic cells at 2.5 uM incubated for 60 hrs by Annexin V-FITC/PI staining based flow cytometric analysis (reference value: 0.22%); type: functional
Eca-109/VCR [11] = experiment: Induction of apoptosis in human Eca-109/VCR cells assessed as viable cells at 5 uM incubated for 60 hrs by Annexin V-FITC/PI staining based flow cytometric analysis (reference value: 97.4%); type: functional; settings: read-out: Activity
Eca-109/VCR [12] = experiment: Induction of apoptosis in human Eca-109/VCR cells assessed as necrotic cells at 2.5 uM incubated for 60 hrs in presence of vincristine by Annexin V-FITC/PI staining based flow cytometric analysis (reference value: 0.10%); type: functional
Eca-109/VCR [13] = experiment: Induction of apoptosis in human Eca-109/VCR cells assessed as early apoptotic cells at 5 uM incubated for 60 hrs by Annexin V-FITC/PI staining based flow cytometric analysis (reference value: 1.66%); type: functional
Eca-109/VCR [14] = experiment: Induction of apoptosis in human Eca-109/VCR cells assessed as viable cells at 2.5 uM incubated for 60 hrs in presence of vincristine by Annexin V-FITC/PI staining based flow cytometric analysis (reference value: 97.3%); type: functional; settings: read-out: Activity
Eca-109/VCR [15] = experiment: Induction of apoptosis in human Eca-109/VCR cells assessed as necrotic cells at 5 uM incubated for 60 hrs by Annexin V-FITC/PI staining based flow cytometric analysis (reference value: 0.22%); type: functional
Eca-109/VCR [16] = experiment: Cytotoxicity against human Eca-109/VCR cells assessed as reduction in cell viability incubated for 48 hrs by CCK-8 assay; type: functional, cell-based
Eca-109/VCR [17] = experiment: Reversal of multi-drug resistance in human Eca-109/VCR cells assessed as decrease in cloning formation at 0.5 to 2 uM incubated for 8 days by crystal violet staining based analysis; type: functional, cell-based; settings: dose 0.5-2 µM, time 8.0 day

COc1cc2c(cc1OC)C(Cc1ccc(OC)c(OS(=O)(=O)c3ccc4ccccc4c3)c1)N(C)CC2 (configuration not stated)
Ratio IC50 [1]: 340.5
Cell viability (% of control) (Eca-109/VCR [2]): 94.7%

COc1cc2c(cc1OC)C(Cc1ccc(OC)c(Oc3ccc([N+](=O)[O-])cc3)c1)N(C)CC2 (configuration not stated)
Ratio IC50 [1]: 53.2
Cell viability (% of control) (Eca-109/VCR [2]): 100.4%

COc1cc2c(cc1OC)C(Cc1ccc(OS(=O)(=O)c3ccc(C#N)cc3)c(OC)c1)N(C)CC2 (configuration not stated)
Ratio IC50 [1]: 168.5
Cell viability (% of control) (Eca-109/VCR [2]): 99.9%

COc1cc2c(cc1OC)C(Cc1ccc(OC)c(OS(=O)(=O)c3ccccc3F)c1)N(C)CC2 (configuration not stated)
Ratio IC50 [1]: 16.5
Cell viability (% of control) (Eca-109/VCR [2]): 98.9%

COc1cc2c(cc1OC)C(Cc1ccc(OCC3CCC3)c(OC)c1)N(C)CC2 (configuration not stated)
Ratio IC50 [1]: 188.7
Cell viability (% of control) (Eca-109/VCR [2]): 107.9%

COc1cc2c(cc1OC)CN(CCc1ccc(NC(=O)c3cc(OC)c(OC)cc3NC(=O)c3cnc4ccccc4c3)cc1)CC2 [TARIQUIDAR]
Activity (Eca-109/VCR [3]): 7%
viability at 2.5 µM (Eca-109/VCR [4]): 96.1%
viability at 5 µM (Eca-109/VCR [5]): 63.4%
Activity (Eca-109/VCR [6]): 0.57%
Activity (Eca-109/VCR [7]): 0.64%
Activity (Eca-109/VCR [8]): 1%
Activity (Eca-109/VCR [9]): 7.6%
Activity (Eca-109/VCR [10]): 0.22%
viability at 5 µM (Eca-109/VCR [11]): 95.6%
Activity (Eca-109/VCR [12]): 0.47%
Activity (Eca-109/VCR [13]): 3.18%
viability at 2.5 µM (Eca-109/VCR [14]): 63.2%
Activity (Eca-109/VCR [15]): 0.21%
Cell viability (% of control) (Eca-109/VCR [2]): 84.8%

COc1cc2c(cc1OC)C(Cc1ccc(OC)c(OS(=O)(=O)c3ccc(C(F)(F)F)cc3)c1)N(C)CC2 (configuration not stated)
Ratio IC50 [1]: 371.9
Cell viability (% of control) (Eca-109/VCR [2]): 100.5%

COc1cc2c(cc1OC)C(Cc1ccc(OC)c(OCC(=O)OC(C)(C)C)c1)N(C)CC2 (configuration not stated)
Ratio IC50 [1]: 3.6
Cell viability (% of control) (Eca-109/VCR [2]): 104.3%

COc1cc2c(cc1OC)C(Cc1ccc(OC)c(OCCc3ccccc3)c1)N(C)CC2 (configuration not stated)
Ratio IC50 [1]: 12.3
Cell viability (% of control) (Eca-109/VCR [2]): 102.4%

CC[C@]1(O)C[C@H]2CN(CCc3c([nH]c4ccccc34)[C@@](C(=O)OC)(c3cc4c(cc3OC)N(C=O)[C@H]3[C@@](O)(C(=O)OC)[C@H](OC(C)=O)[C@]5(CC)C=CCN6CC[C@]43[C@@H]65)C2)C1 [VINCRISTINE]
IC50 (Eca-109/VCR [16]): 4.15 µM
Activity (Eca-109/VCR [17]): inactive
